The NIST ThermoML archive (doi:10.1016/j.jct.2015.08.006)
Numbers after ± are expanded uncertainties.

Conditions: 298.44 K, Pendant drop shape

surface tension liquid-gas: 71.9 ± 0.6 mN/m
SMILES: O [water]
